Tests used:
[1] = target: Human norepinephrine transporter (NET) (Homo sapiens, UniProt P23975); experiment: Binding assay to human norepinephrine transporter (NET), [3H]-Nisoxetin; settings: human NET enriched membranes, 5 nM [3H]-Nisoxetin; Ki as class symbol
Protocol: Binding Assay to Human Norepinephrine Transporter (NET).
Human norepinephrine transporter (NET) enriched membranes (5 μg) were incubated with 5 nM of radiolabeled [3H]-Nisoxetin in assay buffer containing 50 mM Tris-HCl, 120 mM NaCl, 5 mM KCl, pH 7.4.
NSB (non specific binding) was measured by adding 10 μM of desipramine. The binding of the test compound was measured at five different concentrations.. After 60 min incubation at 4° C., binding reaction was terminated by filtering through Multiscreen GF/C (Millipore) presoaked in 0.5% polyethyleneimine in Vacuum Manifold Station, followed by 3 washes with ice-cold filtration buffer containing 50 mM Tris-HCl, 0.9% NaCl, pH 7.4.
Filter plates were dried at 60° C. for 1 hour and 30 μl of scintillation cocktail were added to each well before radioactivity reading.

[2] = target: Human α2δ-1 subunit of Cav2.2 calcium channel (Homo sapiens, UniProt P54289); experiment: Human α2δ-1 subunit of Cav2.2 calcium channel assay, [3H]-Gabapentin binding; settings: human α2δ-1 enriched membranes, 15 nM [3H]-Gabapentin; Ki as class symbol
Sequence of Human α2δ-1 subunit of Cav2.2 calcium channel (P54289 25-1103): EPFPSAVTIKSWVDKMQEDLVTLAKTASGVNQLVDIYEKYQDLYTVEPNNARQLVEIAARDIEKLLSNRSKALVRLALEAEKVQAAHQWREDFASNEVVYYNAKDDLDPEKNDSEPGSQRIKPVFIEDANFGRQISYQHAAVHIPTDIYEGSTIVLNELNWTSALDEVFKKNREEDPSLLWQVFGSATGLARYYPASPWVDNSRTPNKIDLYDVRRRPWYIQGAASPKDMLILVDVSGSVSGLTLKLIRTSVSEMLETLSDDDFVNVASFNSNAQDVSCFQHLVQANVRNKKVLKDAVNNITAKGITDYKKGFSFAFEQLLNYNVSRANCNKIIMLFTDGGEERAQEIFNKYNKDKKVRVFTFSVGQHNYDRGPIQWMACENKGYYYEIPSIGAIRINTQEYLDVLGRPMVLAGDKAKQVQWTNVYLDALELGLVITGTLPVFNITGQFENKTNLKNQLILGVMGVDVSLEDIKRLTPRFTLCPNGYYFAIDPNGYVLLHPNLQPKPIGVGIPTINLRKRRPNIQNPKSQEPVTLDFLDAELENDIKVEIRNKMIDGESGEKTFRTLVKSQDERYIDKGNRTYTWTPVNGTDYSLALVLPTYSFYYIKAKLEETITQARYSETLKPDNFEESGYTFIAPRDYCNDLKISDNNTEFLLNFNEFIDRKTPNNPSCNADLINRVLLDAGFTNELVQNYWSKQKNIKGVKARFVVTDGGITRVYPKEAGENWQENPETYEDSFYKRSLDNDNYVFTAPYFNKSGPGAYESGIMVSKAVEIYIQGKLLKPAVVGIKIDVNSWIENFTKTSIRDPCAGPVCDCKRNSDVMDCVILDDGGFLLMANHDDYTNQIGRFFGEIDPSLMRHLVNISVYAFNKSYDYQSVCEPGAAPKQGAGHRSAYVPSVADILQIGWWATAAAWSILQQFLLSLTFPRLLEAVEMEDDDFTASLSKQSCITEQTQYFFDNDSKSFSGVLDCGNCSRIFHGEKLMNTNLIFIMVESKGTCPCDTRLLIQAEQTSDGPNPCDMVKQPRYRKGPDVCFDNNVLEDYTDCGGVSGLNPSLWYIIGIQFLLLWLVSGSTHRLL
Protocol: Human α2δ-1 Subunit of Cav2.2 Calcium Channel Assay
Human α2δ-1 enriched membranes (2.5 μg) were incubated with 15 nM of radiolabeled [3H]-Gabapentin in assay buffer containing Hepes-KOH 10 mM, pH 7.4. NSB (non specific binding) was measured by adding 10 μM pregabalin. The binding of the test compound was measured at five different concentrations. After 60 min incubation at 27° C., binding reaction was terminated by filtering through Multiscreen GF/C (Millipore) presoaked in 0.5% polyethyleneimine in Vacuum Manifold Station, followed by 3 washes with ice-cold filtration buffer containing 50 mM Tris-HCl, pH 7.4. Filter plates were dried at 60° C. for 1 hour and 30 μl of scintillation cocktail were added to each well before radioactivity reading. Readings were performed in a Trilux 1450 Microbeta radioactive counter (Perkin Elmer).

Sequence of Human norepinephrine transporter (NET) (P23975 whole entry): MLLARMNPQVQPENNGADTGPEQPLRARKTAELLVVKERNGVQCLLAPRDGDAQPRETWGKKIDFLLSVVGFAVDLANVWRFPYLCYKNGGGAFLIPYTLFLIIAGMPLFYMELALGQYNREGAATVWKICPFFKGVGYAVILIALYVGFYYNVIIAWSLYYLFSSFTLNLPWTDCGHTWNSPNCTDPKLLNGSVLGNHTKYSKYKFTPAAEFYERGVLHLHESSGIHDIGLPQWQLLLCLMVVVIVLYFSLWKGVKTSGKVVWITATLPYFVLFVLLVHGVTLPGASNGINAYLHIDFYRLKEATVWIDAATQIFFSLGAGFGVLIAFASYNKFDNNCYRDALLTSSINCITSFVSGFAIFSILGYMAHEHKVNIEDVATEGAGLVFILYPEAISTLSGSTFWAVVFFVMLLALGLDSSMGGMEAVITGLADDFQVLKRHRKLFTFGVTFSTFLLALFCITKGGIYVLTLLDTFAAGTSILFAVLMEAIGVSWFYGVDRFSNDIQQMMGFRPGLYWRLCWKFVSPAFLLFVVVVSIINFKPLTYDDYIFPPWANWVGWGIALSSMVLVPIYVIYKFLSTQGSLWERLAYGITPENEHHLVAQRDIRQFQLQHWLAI

`CCOc1ccc(-n2nc3c(NCc4ccccn4)nnc(C)c3c2C)c(F)c1` [Example 14, 2-(4-ethoxy-2-fluorophenyl)-3,4-dimethyl-N-(pyridin-2-ylmethyl)-2H-pyrazolo[3,4-d]pyridazin-7-amine] was tested, and the Ki [1] was > 1000 nM and the Ki [2] was 100 to 500 nM.

`CCOc1ccc(-n2nc3c(N(C)CCCc4ccccc4O)nnc(C)c3c2C)c(F)c1` [Example 21, 2-(3-((2-(4-ethoxy-2-fluorophenyl)-3,4-dimethyl-2H-pyrazolo[3,4-d]pyridazin-7-yl)(methyl)amino)propyl)phenol] was tested, and the Ki [1] was 500 to 1000 nM and the Ki [2] was ≥ 5000 nM.

`CCOc1ccc(-n2nc3c(N(C)Cc4cnccn4)nnc(C)c3c2C)c(F)c1` [Example 35, 2-(4-ethoxy-2-fluorophenyl)-N,3,4-trimethyl-N-(pyrazin-2-ylmethyl)-2H-pyrazolo[3,4-d]pyridazin-7-amine] was tested, and the Ki [1] was > 1000 nM and the Ki [2] was 100 to 500 nM.

`CCOc1ccc(-n2nc3c(NCCC4(c5ccccn5)CCOC5(CCCC5)C4)nnc(C)c3c2C)c(F)c1` (stereo not shown) [Example 59, 2-(4-ethoxy-2-fluorophenyl)-3,4-dimethyl-N-(2-(9-(pyridin-2-yl)-6-oxaspiro[4.5]decan-9-yl)ethyl)-2H-pyrazolo[3,4-d]pyridazin-7-amine] was tested, and the Ki [1] was > 1000 nM and the Ki [2] was ≥ 5000 nM.

`CCOc1ccc(-n2nc3c(NCc4ccccc4)nnc(C)c3c2C)c(F)c1` [Example 13, N-benzyl-2-(4-ethoxy-2-fluorophenyl)-3,4-dimethyl-2H-pyrazolo[3,4-d]pyridazin-7-amine] was tested, and the Ki [1] was 500 to 1000 nM and the Ki [2] was 100 to 500 nM.

For `CCOc1ccc(-n2nc3c(N(C)Cc4ccncn4)nnc(C)c3c2C)c(F)c1` [Example 36, 2-(4-ethoxy-2-fluorophenyl)-N,3,4-trimethyl-N-(pyrimidin-4-ylmethyl)-2H-pyrazolo[3,4-d]pyridazin-7-amine], the Ki [1] was > 1000 nM and the Ki [2] was 100 to 500 nM.

With `CCOc1ccc(-n2nc3c(NCc4ncccc4C(F)(F)F)nnc(C)c3c2C)c(F)c1` [Example 20, 2-(4-ethoxy-2-fluorophenyl)-3,4-dimethyl-N-((3-(trifluoromethyl)pyridin-2-yl)methyl)-2H-pyrazolo[3,4-d]pyridazin-7-amine] the Ki [1] was > 1000 nM and the Ki [2] was 100 to 500 nM.

With `CCOc1ccc(-n2nc3c(N(C)Cc4ccc(C)cn4)nnc(C)c3c2C)c(F)c1` [Example 34, 2-(4-ethoxy-2-fluorophenyl)-N,3,4-trimethyl-N-((5-methylpyridin-2-yl)methyl)-2H-pyrazolo[3,4-d]pyridazin-7-amine] the Ki [1] was > 1000 nM and the Ki [2] was 100 to 500 nM.

In the case of `CCOc1ccc(-n2nc3c(N(C)Cc4ccon4)nnc(C)c3c2C)c(F)c1` [Example 27, 2-(4-ethoxy-2-fluorophenyl)-N-(isoxazol-3-ylmethyl)-N,3,4-trimethyl-2H-pyrazolo[3,4-d]pyridazin-7-amine], the Ki [1] is reported as > 1000 nM and the Ki [2] is reported as 500 to 5000 nM.

With `CCOc1ccc(-n2nc3c(N(C)CC(O)c4ccccc4)nnc(C)c3c2C)c(F)c1` (stereo not shown) [Example 5, 2-((2-(4-ethoxy-2-fluorophenyl)-3,4-dimethyl-2H-pyrazolo[3,4-d]pyridazin-7-yl)(methyl)amino)-1-phenylethanol] the Ki [1] was > 1000 nM and the Ki [2] was 100 to 500 nM.

Work on `CCOc1ccc(-n2nc3c(N(C)Cc4ncccc4F)nnc(C)c3c2C)c(F)c1` [Example 33, 2-(4-ethoxy-2-fluorophenyl)-N-((3-fluoropyridin-2-yl)methyl)-N,3,4-trimethyl-2H-pyrazolo[3,4-d]pyridazin-7-amine] yielded a Ki [1] of 100 to 500 nM and a Ki [2] of 100 to 500 nM.

In the case of `CCOc1ccc(-n2nc3c(NCc4cc(C)ccn4)nnc(C)c3c2C)c(F)c1` [Example 22, 2-(4-ethoxy-2-fluorophenyl)-3,4-dimethyl-N-((4-methylpyridin-2-yl)methyl)-2H-pyrazolo[3,4-d]pyridazin-7-amine], the Ki [1] is reported as > 1000 nM and the Ki [2] is reported as 100 to 500 nM.

`CCOc1ccc(-n2nc3c(N(CCO)Cc4cccnc4)nnc(C)c3c2C)c(F)c1` [Example 57, 2-((2-(4-ethoxy-2-fluorophenyl)-3,4-dimethyl-2H-pyrazolo[3,4-d]pyridazin-7-yl)(pyridin-3-ylmethyl)amino)ethanol] was tested, and the Ki [1] was > 1000 nM and the Ki [2] was ≥ 5000 nM.

`CCOc1ccc(-n2nc3c(N(C)Cc4ccccc4O)nnc(C)c3c2C)c(F)c1` [Example 23, 2-(((2-(4-ethoxy-2-fluorophenyl)-3,4-dimethyl-2H-pyrazolo[3,4-d]pyridazin-7-yl)(methyl)amino)methyl)phenol] was tested, and the Ki [1] was 500 to 1000 nM and the Ki [2] was 100 to 500 nM.

`CCOc1ccc(-n2nc3c(NC(CCO)c4ccccc4)nnc(C)c3c2C)c(F)c1` (stereo not shown) [Example 8, 3-((2-(4-ethoxy-2-fluorophenyl)-3,4-dimethyl-2H-pyrazolo[3,4-d]pyridazin-7-yl)amino)-3-phenylpropan-1-ol] was tested, and the Ki [1] was > 1000 nM and the Ki [2] was 100 to 500 nM.

With `CCOc1ccc(-n2nc3c(N(C)Cc4cc(OC)ccn4)nnc(C)c3c2C)c(F)c1` [Example 31, 2-(4-ethoxy-2-fluorophenyl)-N-((4-methoxypyridin-2-yl)methyl)-N,3,4-trimethyl-2H-pyrazolo[3,4-d]pyridazin-7-amine] the Ki [1] was > 1000 nM and the Ki [2] was 100 to 500 nM.

For `CCOc1ccc(-n2nc3c(N(CCO)Cc4ccncc4)nnc(C)c3c2C)c(F)c1` [Example 53, 2-((2-(4-Ethoxy-2-fluorophenyl)-3,4-dimethyl-2H-pyrazolo[3,4-d]pyridazin-7-yl)(pyridin-4-ylmethyl)amino)ethanol], the Ki [1] was > 1000 nM and the Ki [2] was ≥ 5000 nM.

Work on `CCOc1ccc(-n2nc3c(N(C)CCCc4ccccc4)nnc(C)c3c2C)c(F)c1` [Example 4, 2-(4-ethoxy-2-fluorophenyl)-N,3,4-trimethyl-N-(3-phenylpropyl)-2H-pyrazolo[3,4-d]pyridazin-7-amine] yielded a Ki [1] of 100 to 500 nM and a Ki [2] of 100 to 500 nM.

In the case of `CCOc1ccc(-n2nc3c(N(C)Cc4cnc[nH]4)nnc(C)c3c2C)c(F)c1` [Example 24, N-((1H-imidazol-5-yl)methyl)-2-(4-ethoxy-2-fluorophenyl)-N,3,4-trimethyl-2H-pyrazolo[3,4-d]pyridazin-7-amine], the Ki [1] is reported as > 1000 nM and the Ki [2] is reported as 100 to 500 nM.

`CCOc1ccc(-n2nc3c(N(C)CCc4ccccn4)nnc(C)c3c2C)c(F)c1` [Example 16, 2-(4-ethoxy-2-fluorophenyl)-N,3,4-trimethyl-N-(2-(pyridin-2-yl)ethyl)-2H-pyrazolo[3,4-d]pyridazin-7-amine] was tested, and the Ki [1] was > 1000 nM and the Ki [2] was 100 to 500 nM.

`CCOc1ccc(-n2nc3c(N(C)Cc4cccc(C)n4)nnc(C)c3c2C)c(F)c1` [Example 1, 2-(4-Ethoxy-2-fluorophenyl)-N,3,4-trimethyl-N-((6-methylpyridin-2-yl)methyl)-2H-pyrazolo[3,4-d]pyridazin-7-amine] showed a Ki [1] of 500 to 1000 nM and a Ki [2] of 100 to 500 nM.

With `CCOc1ccc(-n2nc3c(N(C)Cc4cccnc4)nnc(C)c3c2C)c(F)c1` [Example 10, 2-(4-ethoxy-2-fluorophenyl)-N,3,4-trimethyl-N-(pyridin-3-ylmethyl)-2H-pyrazolo[3,4-d]pyridazin-7-amine] the Ki [1] was 500 to 1000 nM and the Ki [2] was 100 to 500 nM.

`CCOc1ccc(-n2nc3c(NCC(CO)Cc4ccccc4)nnc(C)c3c2C)c(F)c1` (stereo not shown) [Example 12, 2-benzyl-3-((2-(4-ethoxy-2-fluorophenyl)-3,4-dimethyl-2H-pyrazolo[3,4-d]pyridazin-7-yl)amino)propan-1-ol] showed a Ki [1] of 100 to 500 nM and a Ki [2] of 100 to 500 nM.

`CCOc1ccc(-n2nc3c(N(C)Cc4ccn[nH]4)nnc(C)c3c2C)c(F)c1` [Example 28, N-((1H-pyrazol-5-yl)methyl)-2-(4-ethoxy-2-fluorophenyl)-N,3,4-trimethyl-2H-pyrazolo[3,4-d]pyridazin-7-amine] was tested, and the Ki [1] was > 1000 nM and the Ki [2] was 100 to 500 nM.

In the case of `CCOc1ccc(-n2nc3c(N(C)CCC(N)c4ccccc4)nnc(C)c3c2C)c(F)c1` (stereo not shown) [Example 39, N1-(2-(4-ethoxy-2-fluorophenyl)-3,4-dimethyl-2H-pyrazolo[3,4-d]pyridazin-7-yl)-N1-methyl-3-phenylpropane-1,3-diamine], the Ki [1] is reported as 500 to 1000 nM and the Ki [2] is reported as ≥ 5000 nM.

For `CCOc1ccc(-n2nc3c(NCC(O)Cc4ccccc4)nnc(C)c3c2C)c(F)c1` (stereo not shown) [Example 19, 1-((2-(4-ethoxy-2-fluorophenyl)-3,4-dimethyl-2H-pyrazolo[3,4-d]pyridazin-7-yl)amino)-3-phenylpropan-2-ol], the Ki [1] was > 1000 nM and the Ki [2] was 100 to 500 nM.

For `CCOc1ccc(-n2nc3c(NCCc4ccccn4)nnc(C)c3c2C)c(F)c1` [Example 15, 2-(4-ethoxy-2-fluorophenyl)-3,4-dimethyl-N-(2-(pyridin-2-yl)ethyl)-2H-pyrazolo[3,4-d]pyridazin-7-amine], the Ki [1] was > 1000 nM and the Ki [2] was 100 to 500 nM.

For `CCOc1ccc(-n2nc3c(N(C)CCn4cnc5ccccc54)nnc(C)c3c2C)c(F)c1` [Example 58, N-(2-(1H-Benzo[d]imidazol-1-yl)ethyl)-2-(4-ethoxy-2-fluorophenyl)-N,3,4-trimethyl-2H-pyrazolo[3,4-d]pyridazin-7-amine], the Ki [1] was > 1000 nM and the Ki [2] was 500 to 5000 nM.

In the case of `Cc1nnc(N(C)Cc2ccccn2)c2nn(-c3ccc(O)cc3)c(C)c12` [Example 47, 4-(3,4-dimethyl-7-(methyl(pyridin-2-ylmethyl)amino)-2H-pyrazolo[3,4-d]pyridazin-2-yl)phenol], the Ki [1] is reported as > 1000 nM and the Ki [2] is reported as ≥ 5000 nM.

Reference: patent US20200199127A1, “(HETERO)ARYLALKYLAMINO-PYRAZOLOPYRIDAZINE DERIVATIVES HAVING MULTIMODAL ACTIVITY AGAINST PAIN” (priority 2017, published 2020)
